EP3915971A1, “PHENYL-S(O)N-PHENYLAMIDINES AND THE USE THEREOF AS FUNGICIDES” (Bayer Aktiengesellschaft, priority 2020, dated 2021)

experiment: LogP measurement by HPLC on reversed phase columns (EEC directive 79/831 Annex V.A8); type: physicochemical; settings: reversed phase HPLC columns, method [a]: LC-UV, acidic range, 0.1% formic acid in water and acetonitrile as eluent (linear gradient 10% to 95% acetonitrile)
Description: Measurement of LogP values was performed according to EEC directive 79/831 Annex V.A8 by HPLC (High Performance Liquid Chromatography) on reversed phase columns with the following methods: • ^[a] LogP value is determined by measurement of LC-UV, in an acidic range, with 0.1% formic acid in water and acetonitrile as eluent (linear gradient from 10% acetonitrile to 95% acetonitrile). • ^[b] LogP value is determined by measurement of LC-UV, in a neutral range, with 0.001 molar ammonium acetate solution in water and acetonitrile as eluent (linear gradient from 10% acetonitrile to 95% acetonitrile). • ^[c] LogP value is determined by measurement of LC-UV, in an acidic range, with 0.1% phosphoric acid and acetonitrile as eluent (linear gradient from 10% acetonitrile to 95% acetonitrile).
If more than one LogP value is available within the same method, all the values are given and separated by "+". […]

| Structure (SMILES) | chromatographic logP |
| --- | --- |
| CCN(C)C=Nc1cc(Br)c([S+]([O-])c2ccccc2F)cc1C (centres unmarked) [Example I-043, N'-[5-bromo-4-(2-fluorophenyl)sulfinyl-2-methylphenyl]-N-ethyl-N-methylmethanimidamide] | 1.1 |
| CCN(C)C=Nc1cc(C)c(S(=O)(=O)c2ccccc2Cl)cc1Cl [Example I-018, N'-[2-chloro-4-(2-chlorophenyl)sulfonyl-5-methylphenyl]-N-ethyl-N-methylmethanimidamide] | 2.02 |
| CCN(C)C=Nc1cc(C)c([S+]([O-])c2ccccc2C)cc1Br (centres unmarked) [Example I-063, N'-[2-bromo-5-methyl-4-(2-methylphenyl)sulfinylphenyl]-N-ethyl-N-methylmethanimidamide] | 1.15 |
| CCN(C)C=Nc1cc(Cl)c([S+]([O-])c2ccccc2Cl)cc1C (centres unmarked) [Example I-040, N'-[5-chloro-4-(2-chlorophenyl)sulfinyl-2-methylphenyl]-N-ethyl-N-methylmethanimidamide] | 1.23 |
| CCN(C)C=Nc1cc(Cl)c([S+]([O-])c2ccccc2)cc1C (centres unmarked) [Example I-050, N'-[4-(benzenesulfinyl)-5-chloro-2-methylphenyl]-N-ethyl-N-methylmethanimidamide] | 0.97 |
| CCc1cc([S+]([O-])c2ccccc2C)c(C)cc1N=CN(C)CC (centres unmarked) [Example I-081, N-ethyl-N'-[2-ethyl-5-methyl-4-(2-methylphenyl)sulfinylphenyl]-N-methylmethanimidamide] | 1.07 |
| CCN(C)C=Nc1cc(F)c(S(=O)(=O)c2ccccc2Cl)cc1C [Example I-029, N'-[4-(2-chlorophenyl)sulfonyl-5-fluoro-2-methylphenyl]-N-ethyl-N-methylmethanimidamide] | 1.45 |
| CCN(C)C=Nc1cc(C)c([S+]([O-])c2ccccc2C)cc1C(F)(F)F (centres unmarked) [Example I-088, N-ethyl-N-methyl-N'-[5-methyl-4-(2-methylphenyl)sulfinyl-2-(trifluoromethyl)phenyl]methanimidamide] | 2.14 |
| CCN(C)C=Nc1cc(Br)c([S+]([O-])c2ccccc2Cl)cc1C (centres unmarked) [Example I-036, N'-[5-bromo-4-(2-chlorophenyl)sulfinyl-2-methylphenyl]-N-ethyl-N-methylmethanimidamide] | 1.26 |
| CCN(C)C=Nc1cc(F)c(S(=O)(=O)c2ccccc2)cc1C [Example I-027, N'-[4-(benzenesulfonyl)-5-fluoro-2-methylphenyl]-N-ethyl-N-methylmethanimidamide] | 1.18 |
| CCN(C)C=Nc1cc(Cl)c(S(=O)(=O)c2ccccc2)cc1C [Example I-048, N'-[4-(benzenesulfonyl)-5-chloro-2-methylphenyl]-N-ethyl-N-methylmethanimidamide] | 1.31 |
| CCN(C)C=Nc1cc(Br)c([S+]([O-])c2ccccc2)cc1C (centres unmarked) [Example I-038, N'-[4-(benzenesulfinyl)-5-bromo-2-methylphenyl]-N-ethyl-N-methylmethanimidamide] | 1 |
| CCN(C)C=Nc1cc(Br)c([S+]([O-])c2ccccc2C)cc1C (centres unmarked) [Example I-035, N'-[5-bromo-2-methyl-4-(2-methylphenyl)sulfinylphenyl]-N-ethyl-N-methylmethanimidamide] | 1.12 |
| CCN(C)C=Nc1cc(C)c(S(=O)(=O)c2ccccc2F)cc1C(C)C [Example I-093, N-ethyl-N'-[4-(2-fluorophenyl)sulfonyl-2-isopropyl-5-methylphenyl]-N-methylmethanimidamide] | 1.45 |
| CCN(C)C=Nc1cc(C#N)c(S(=O)(=O)c2ccccc2Cl)cc1C [Example I-062, N'-[4-(2-chlorophenyl)sulfonyl-5-cyano-2-methylphenyl]-N-ethyl-N-methylmethanimidamide] | 1.84 |
| CCN(C)C=Nc1cc(C)c([S+]([O-])c2ccccc2)cc1C1CC1 (centres unmarked) [Example I-075, N'-[4-(benzenesulfinyl)-2-cyclopropyl-5-methylphenyl]-N-ethyl-N-methylmethanimidamide] | 0.9 |
| CCN(C)C=Nc1cc(C)c(S(=O)(=O)c2ccccc2F)cc1Cl [Example I-019, N'-[2-chloro-4-(2-fluorophenyl)sulfonyl-5-methylphenyl]-N-ethyl-N-methylmethanimidamide] | 1.84 |
| CCN(C)C=Nc1cc(C)c(S(=O)(=O)c2ccccc2C)cc1Cl [Example I-015, N'-[2-chloro-5-methyl-4-(2-methylphenyl)sulfonylphenyl]-N-ethyl-N-methylmethanimidamide] | 1.69 |
| CCN(C)C=Nc1cc(C)c([S+]([O-])c2ccccc2Cl)cc1Cl (centres unmarked) [Example I-013, N'-[2-chloro-4-(2-chlorophenyl)sulfinyl-5-methylphenyl]-N-ethyl-N-methylmethanimidamide] | 1.15 |

| Structure (SMILES) | chromatographic logP |
| --- | --- |
| CCN(C)C=Nc1cc(C)c(S(=O)(=O)c2ccccc2)cc1C [Example I-004, N'-[4-(benzenesulfonyl)-2,5-dimethylphenyl]-N-ethyl-N-methylmethanimidamide] | 1 |
| CCN(C)C=Nc1cc(C)c(Sc2ccccc2C#N)cc1C(F)(F)F [Example I-104, N'-[4-[(2-cyanophenyl)thio]-5-methyl-2-(trifluoromethyl)phenyl]-N-ethyl-N-methylmethanimidamide] | 2.44 |
| CCN(C)C=Nc1cc(C)c(Sc2ccccc2)cc1Br [Example I-080, N'-(2-bromo-5-methyl-4-phenylsulfanylphenyl)-N-ethyl-N-methylmethanimidamide] | 1.75 |
| CCN(C)C=Nc1cc(C#N)c([S+]([O-])c2ccccc2)cc1C (centres unmarked) [Example I-056, N'-[4-(benzenesulfinyl)-5-cyano-2-methylphenyl]-N-ethyl-N-methylmethanimidamide] | 0.87 |
| CCN(C)C=Nc1cc(C#N)c([S+]([O-])c2ccccc2Cl)cc1C (centres unmarked) [Example I-061, N'-[4-(2-chlorophenyl)sulfinyl-5-cyano-2-methylphenyl]-N-ethyl-N-methylmethanimidamide] | 1.27 |
| CCN(C)C=Nc1cc(C#N)c(S(=O)(=O)c2ccccc2)cc1C [Example I-055, N'-[4-(benzenesulfonyl)-5-cyano-2-methylphenyl]-N-ethyl-N-methylmethanimidamide] | 1.53 |
| CCN(C)C=Nc1cc(C)c([S+]([O-])c2ccccc2)cc1Br (centres unmarked) [Example I-079, N'-[4-(benzenesulfinyl)-2-bromo-5-methylphenyl]-N-ethyl-N-methylmethanimidamide] | 0.93 |
| CCN(C)C=Nc1cc(C)c(S(=O)(=O)c2ccccc2C)cc1Br [Example I-065, N'-[2-bromo-5-methyl-4-(2-methylphenyl)sulfonylphenyl]-N-ethyl-N-methylmethanimidamide] | 1.93 |
| CCN(C)C=Nc1cc(C)c(S(=O)(=O)c2ccccc2F)cc1Br [Example I-071, N'-[2-bromo-4-(2-fluorophenyl)sulfonyl-5-methylphenyl]-N-ethyl-N-methylmethanimidamide] | 1.81 |
| CCN(C)C=Nc1cc(F)c([S+]([O-])c2ccccc2Cl)cc1C (centres unmarked) [Example I-033, N'-[4-(2-chlorophenyl)sulfinyl-5-fluoro-2-methylphenyl]-N-ethyl-N-methylmethanimidamide] | 1.12 |
| CCN(C)C=Nc1cc(Cl)c(S(=O)(=O)c2ccccc2C#N)cc1C [Example I-053, N'-[5-chloro-4-(2-cyanophenyl)sulfonyl-2-methylphenyl]-N-ethyl-N-methylmethanimidamide] | 1.31 |
| CCN(C)C=Nc1cc(Cl)c([S+]([O-])c2ccccc2C)cc1C (centres unmarked) [Example I-037, N'-[5-chloro-2-methyl-4-(2-methylphenyl)sulfinylphenyl]-N-ethyl-N-methylmethanimidamide] | 1.1 |
| CCN(C)C=Nc1cc(C)c(S(=O)(=O)c2ccccc2C)cc1C [Example I-016, N'-[2,5-dimethyl-4-(2-methylphenyl)sulfonylphenyl]-N-ethyl-N-methylmethanimidamide] | 1.18 |
| CCN(C)C=Nc1cc(C)c(S(=O)(=O)c2ccccc2C#N)cc1C [Example I-049, N'-[4-(2-cyanophenyl)sulfonyl-2,5-dimethylphenyl]-N-ethyl-N-methylmethanimidamide] | 1 |
| CCN(C)C=Nc1cc(C)c(S(=O)(=O)c2ccccc2C)cc1C1CC1 [Example I-072, N'-[2-cyclopropyl-5-methyl-4-(2-methylphenyl)sulfonylphenyl]-N-ethyl-N-methylmethanimidamide] | 1.39 |
| CCN(C)C=Nc1cc(C)c(S(=O)(=O)c2ccccc2F)cc1C1CC1 [Example I-096, N'-[2-cyclopropyl-4-(2-fluorophenyl)sulfonyl-5-methylphenyl]-N-ethyl-N-methylmethanimidamide] | 1.27 |
| CCN(C)C=Nc1cc(F)c([S+]([O-])c2ccccc2)cc1C (centres unmarked) [Example I-031, N'-[4-(benzenesulfinyl)-5-fluoro-2-methylphenyl]-N-ethyl-N-methylmethanimidamide] | 0.78 |
| CCN(C)C=Nc1cc(C)c(Sc2ccccc2C)cc1C(F)(F)F [Example I-083, N-ethyl-N-methyl-N'-[5-methyl-4-[(2-methylphenyl)thio]-2-(trifluoromethyl)phenyl]methanimidamide] | 2.62 |

same assay, conditions: reversed phase HPLC columns, method [b]: LC-UV, neutral range, 0.001 molar ammonium acetate solution in water and acetonitrile as eluent (linear gradient 10% to 95% acetonitrile)

| Structure (SMILES) | chromatographic logP |
| --- | --- |
| CCN(C)C=Nc1cc(C)c(Sc2ccccc2C#N)cc1C(F)(F)F [Example I-104, N'-[4-[(2-cyanophenyl)thio]-5-methyl-2-(trifluoromethyl)phenyl]-N-ethyl-N-methylmethanimidamide] | 4.64 |
